We go through seven compounds from paper PMC8247284 (Antiviral Research, 2021).

Assay [1] relates to SARS-CoV-2. Put plainly: Confocal microscopy of dsRNA, SARS-CoV-2-infected Huh7 cells. The note with it: chloroquine 5 μM, 6 h. Type of assay: cell-based.
The test system of the next assay is HCoV-229E. The assay can be described thus: Confocal microscopy of dsRNA, HCoV-229E-infected Huh7 cells. Type of assay: cell-based. The note with it: dsRNA staining, 6 h.
For assay [2], the system named is LC3 puncta (autophagy pathway). The assay can be described thus: High content analysis of cytoplasmic LC3 puncta in HEp-2 cells. Type of assay: cell-based, human. The note with it: 3 h incubation, relative to untreated control.
For assay [3], the system named is LC3-positive puncta (autophagy). The assay can be described thus: Confocal microscopy of LC3 in Huh7 cells. Type of assay: cell-based, human. To be noted: chloroquine 0.5, 5 and 50 μM, 6 h, infected and uninfected Huh7 cells.
Assay [4] has as its system alpha- and beta-coronaviruses. Put plainly: organism not typed. The note with it: read-out: EC50 values against the various coronaviruses.
Assay [5] deals with SARS-CoV-2. Type of assay: cell-based.

In the case of `CCN(CC)CCCC(C)Nc1ccnc2cc(Cl)ccc12` (stereo not drawn) [Chloroquine, chloroquine], the “viral RNA synthesis (dsRNA staining)” value with SARS-CoV-2 [1] is listed as “completely blocked”. The “concentration required to fully inhibit HCoV-229E replication” value in the assay with HCoV-229E is 50 µM. Also, the “increase of the intensity of cytoplasmic LC3 puncta” value in assay [2] stood at 6 fold. Besides, the LC3-positive puncta entry in assay [3] was “dose-dependent increase”. In addition, the EC50 in assay [4] was in the range of 0.12 to 12 µM.

Turning to `N#C[C@@]1(c2ccc3c(N)ncnn23)O[C@H](CO)[C@@H](O)[C@H]1O` [GS-441524], in the assay with SARS-CoV-2 [5], the “log reduction of the viral copy number” value was determined as 4.3 log.

For `CCN(CCO)CCCC(C)Nc1ccnc2cc(Cl)ccc12` (stereo not drawn) [Hydroxychloroquine, hydroxychloroquine], the “increase of the intensity of cytoplasmic LC3 puncta” value in assay [2] was determined as 6 fold. In assay [4], the EC50 was in the range of 0.12 to 12 µM.

Regarding `COc1cc(NC(C)CCCN)c2ncccc2c1` (stereo not drawn) [Primaquine, primaquine], the EC50 in assay [4] was over 13 µM.

In the case of `C=C[C@H]1C[N@@]2CC[C@H]1C[C@@H]2[C@@H](O)c1ccnc2ccc(OC)cc12` [Quinidine, quinidine], the EC50 in assay [4] was over 13 µM.

For the compound `C=C[C@H]1C[N@@]2CC[C@H]1C[C@H]2[C@H](O)c1ccnc2ccc(OC)cc12` [Quinine, quinine], the EC50 in assay [4] was over 13 µM.

For `COc1cc(C)c2c(Oc3cccc(C(F)(F)F)c3)c(OC)cc(NC(C)CCCN)c2n1` (stereo not drawn) [Tafenoquine, tafenoquine], the concentration giving a half-maximal response (EC50) in assay [4] is over 13 µM.

The term EC50 denotes the concentration needed to bring the measured effect to its halfway point.
